Patent US20110207745A1 (priority 2009, published 2011)
Structures can show the parent of a compound that is named as a salt. Where two headings read alike, the source gives them in different places.

Key:
[1] = Solubility in simulated biological media; format: physicochemical; details: mean ± SD, n = 2
Description: Solubility and Dissolution Rate Data.
Solubility and Dissolution Rate Data. […]

[2] = Intrinsic dissolution rate in simulated biological media; format: physicochemical
Method: Intrinsic dissolution rate is determined at 37° C. using a Distek Dissolution System model 5100A with a sample size of approximately 200 mg (0.5 cm^2 disc) and 500 mL dissolution medium. The paddle speed is set to 500 rpm and the paddle height to approximately 2.54 cm above the disc surface. The concentration of sample in solution is determined by HPLC.

[3] = Plasma exposure of efficacious doses in rodents; format: in vivo; details: separate tests of anxiolysis and antidepressant activity
[4] = Method: Stress Experiments. Solids are stressed under different temperature or relative humidity (RH) environments for a measured time period. Specific RH values are achieved by placing the sample inside sealed chambers containing saturated salt solutions, as known in the art. The salt solutions are selected and prepared following an ASTM standard procedure. Samples are analyzed by XRPD immediately after removal from the stress environment.
Analyses are carried out on an Agilent® model 1100 high performance liquid chromatograph using gradient elution on a reversed phase column utilizing ultraviolet (UV) detection. Approximately 25 mg of the sample is weighed accurately and dissolved in methanol/water/trifluoroacetic acid (35:65:0.05) to a volume of 50 mL. The sample solution is analysed using the conditions specified below:
The content of the drug and related substances are quantified by area (%).
Chemical Stability. The chemical stability of Form I of the mono-HCl salt of Compound A1 was assessed by stressing the material at various temperature/relative humidity/light conditions, then analyzing by HPLC.
Chemical Stability Data. The chemical stability of a sample of Form I of the sesquifumarate salt of Compound A1 was assessed by stressing the material at various temperature/relative humidity/light conditions, then analyzing by HPLC.

[5] = format: physicochemical; details: water vapor sorption, typical laboratory humidity (55% RH)
Method: Data are collected on a VTI SGA-100 moisture balance system. For sorption isotherms, a sorption range of about 0% to about 90% relative humidity (RH) and a desorption range of about 90 to about 0% RH in 10% RH increments are used for analysis. The samples are not dried prior to analysis. Equilibrium criteria used for analysis are less than 0.0100% weight change in 5 minutes with a maximum equilibration time of 3 hours if the weight criterion is not met. Data are not corrected for the initial moisture content of the samples.
The amorphous material was placed into preset RH conditions (50% and 75% RH) for 24 hours to check dynamic moisture absorption as well as deliquescence.

[6] = 0.1M phosphate buffer, initial pH 7.5
[7] = FaSSIF (fasted-state simulated intestinal fluid), initial pH 6.51
[8] = FeSSIF (fed-state simulated intestinal fluid), initial pH 5.03
[9] = SGF (simulated gastric fluid), initial pH 1.3
[10] = Ultraviolet light, 25° C./60% RH, 2x ICH (2 days), stored open
[11] = Ultraviolet light, 25° C./60% RH, 3x ICH (3 days), stored open
[12] = Ultraviolet light, 25° C./60% RH, ICH (1 day), stored open
[13] = White light, 25° C./60%, ICH (7 days), stored open

## CCN(CC)C(=O)c1ccc([C@H](c2cccc(N)c2)N2CCN(Cc3ccc(F)cc3)CC2)cc1 [Form I of the sesquifumarate salt of Compound A1] [4-{(R)-(3-aminophenyl)[4-(4-fluorobenzyl)piperazin-1-yl]methyl}-N,N-diethylbenzamide]
[1]; [6]
  Solubility, 3 hr: 180 µg/mL
  Solubility, 24 hr: 120 µg/mL
[1]; [7]
  Solubility, 3 hr: 4400 µg/mL
  Solubility, 24 hr: 4130 µg/mL
[1]; [8]
  Solubility, 3 hr: 2540 µg/mL
  Solubility, 24 hr: 2660 µg/mL
[1]; [9]
  Solubility, 3 hr: 17400 µg/mL
  Solubility, 24 hr: 17100 µg/mL
[2]; FaSSIF, initial pH 6.51, mean ± SD, n = 2
  IDR (intrinsic dissolution rate): 553 μg/min/cm^2
[2]; FaSSIF, initial pH 6.51, mean ± SD, n = 2, listed as Compound A1 Sesquifumarate Salt
  IDR (intrinsic dissolution rate): 553 ± 68.9 μg/min/cm^2
[2]; FeSSIF, initial pH 5.03, mean ± SD, n = 2
  IDR (intrinsic dissolution rate): 33.5 μg/min/cm^2
[2]; FeSSIF, initial pH 5.03, mean ± SD, n = 2, listed as Compound A1 Sesquifumarate Salt
  IDR (intrinsic dissolution rate): 33.5 ± 1.15 μg/min/cm^2
[2]; SGF, initial pH 1.3
  IDR (intrinsic dissolution rate): too soluble to permit determination of its IDR
[3]
  mean plasma exposures produced by efficacious doses: ≥ 2 ng/mL
[4]; 25° C./60% RH, 7 days
  % Purity (after challenge): 99.6%
  % Purity (reference material): 104.0%
[4]; 40° C./75% RH, 7 days
  % Purity (after challenge): 99.5%
  % Purity (reference material): 103.5%
[4]; 60° C./80% RH, 2 weeks, HPLC area %
  % Purity after 60° C./80% RH, 2 wks: 86.5%
[4]; 60° C./80% RH, 4 weeks, HPLC area %
  % Purity after 60° C./80% RH, 4 wks: 80.3%
[4]; 80° C., 2 weeks, HPLC area %
  % Purity after 80° C., 2 wks: 91.8%
[4]; 80° C., 4 weeks, HPLC area %
  % Purity after 80° C., 4 wks: 86.1%
[4]; 80° C., 7 days
  % Purity (after challenge): 97.1%
  % Purity (reference material): 99.8%
[4]; Photostability 3X ICH conditions, HPLC area %
  Purity after Photostability 3X ICH conditions: 93.2%
[4]; Reference, 0 days
  % Purity (after challenge): 99.6%
  % Purity (reference material): 100%
[4]; [10]
  % Purity (after challenge): 99.6%
  % Purity (reference material): 100.7%
[4]; [11]
  % Purity (after challenge): 99.4%
  % Purity (reference material): 100.9%
[4]; [12]
  % Purity (after challenge): 99.5%
  % Purity (reference material): 100.2%
[4]; [13]
  % Purity (after challenge): 99.5%
  % Purity (reference material): 101.7%
[4]; initial, before storage, HPLC area %
  Initial Purity: 98.6%
[5]
  moisture content at equilibrium: approximately 4.5%
